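1) Cells in 96-well plates. 2) Compound, 48 h, 5 concentrations. 3) Linear interpolation between surrounding doses. 4) Unreached endpoint = highest concentration. TGI is the concentration that stops growth completely.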
Legend:
Test in all cases: growth of human tumour cells (NCI), 48 h
786-0 renal = test system: 786-0 renal
A498 renal = test system: A498 renal
A549 NSCLC = test system: A549 NSCLC
ACHN renal = test system: ACHN renal
BT-549 breast = test system: BT-549 breast
CAKI-1 renal = test system: CAKI-1 renal
COLO 205 colon = test system: COLO 205 colon
DU-145 prostate = test system: DU-145 prostate
EKVX NSCLC = test system: EKVX NSCLC
HCC-2998 colon = test system: HCC-2998 colon
HCT-116 colon = test system: HCT-116 colon
HCT-15 colon = test system: HCT-15 colon
HL-60(TB) leukemia = test system: HL-60(TB) leukemia
HOP-62 NSCLC = test system: HOP-62 NSCLC
HOP-92 NSCLC = test system: HOP-92 NSCLC
HS 578T breast = test system: HS 578T breast
HT29 colon = test system: HT29 colon
IGROV1 ovarian = test system: IGROV1 ovarian
K-562 leukemia = test system: K-562 leukemia
KM12 colon = test system: KM12 colon
LOX IMVI melanoma = test system: LOX IMVI melanoma
M14 melanoma = test system: M14 melanoma
MALME-3M melanoma = test system: MALME-3M melanoma
MCF7 breast = test system: MCF7 breast
MDA-MB-231 breast = test system: MDA-MB-231 breast
MDA-MB-435 = test system: MDA-MB-435
MDA-N = test system: MDA-N
MOLT-4 leukemia = test system: MOLT-4 leukemia
NCI-H226 lung = test system: NCI-H226 lung
NCI-H23 lung = test system: NCI-H23 lung
NCI-H460 lung = test system: NCI-H460 lung
NCI-H522 lung = test system: NCI-H522 lung
NCI/ADR-RES ovarian = test system: NCI/ADR-RES ovarian
OVCAR-4 ovarian = test system: OVCAR-4 ovarian
OVCAR-5 ovarian = test system: OVCAR-5 ovarian
OVCAR-8 ovarian = test system: OVCAR-8 ovarian
PC-3 prostate = test system: PC-3 prostate
RPMI-8226 leukemia = test system: RPMI-8226 leukemia
RXF 393 renal = test system: RXF 393 renal
SF-268 CNS = test system: SF-268 CNS
SF-295 CNS = test system: SF-295 CNS
SF-539 CNS = test system: SF-539 CNS
SK-MEL-2 melanoma = test system: SK-MEL-2 melanoma
SK-MEL-28 melanoma = test system: SK-MEL-28 melanoma
SK-MEL-5 melanoma = test system: SK-MEL-5 melanoma
SK-OV-3 ovarian = test system: SK-OV-3 ovarian
SN12C renal = test system: SN12C renal
SNB-19 CNS = test system: SNB-19 CNS
SNB-75 CNS = test system: SNB-75 CNS
SW-620 colon = test system: SW-620 colon
T-47D breast = test system: T-47D breast
TK-10 renal = test system: TK-10 renal
U251 CNS = test system: U251 CNS
UACC-257 melanoma = test system: UACC-257 melanoma
UACC-62 melanoma = test system: UACC-62 melanoma
UO-31 renal = test system: UO-31 renal
CCRF-CEM leukemia = test system: CCRF-CEM leukemia
OVCAR-3 ovarian = test system: OVCAR-3 ovarian

Compound `C/C(=N/NC(=S)N1CC2CCC(CC2)C1)c1cnccn1` has a TGI (786-0 renal) of 5.65 µM, a TGI (A498 renal) of 14.2 µM and a TGI (A549 NSCLC) of 10.4 µM. It also gave a TGI (ACHN renal) of 10.1 µM, a TGI (BT-549 breast) of 16.7 µM and a TGI (CAKI-1 renal) of 11.3 µM. The TGI (COLO 205 colon) was 10.9 µM, the TGI (DU-145 prostate) was 13.8 µM and the TGI (EKVX NSCLC) was 12.3 µM. For the same compound, the TGI (HCC-2998 colon) was 13.6 µM, the TGI (HCT-116 colon) was 12.3 µM and the TGI (HCT-15 colon) was 16 µM. For the same compound, the TGI (HL-60(TB) leukemia) was 3.18 µM, the TGI (HOP-62 NSCLC) was 14.9 µM and the TGI (HOP-92 NSCLC) was 12.7 µM. The TGI (HS 578T breast) was 11.4 µM, the TGI (HT29 colon) was 12.2 µM and the TGI (IGROV1 ovarian) was 2.62 µM. For the same compound, the TGI (K-562 leukemia) was 0.472 µM, the TGI (KM12 colon) was 21 µM and the TGI (LOX IMVI melanoma) was 11.4 µM. The TGI (M14 melanoma) was 1.85 µM, the TGI (MALME-3M melanoma) was 10.3 µM and the TGI (MCF7 breast) was 12.1 µM. The TGI (MDA-MB-231 breast) was 16.8 µM, the TGI (MDA-MB-435) was 16.4 µM and the TGI (MDA-N) was 28.7 µM. The TGI (MOLT-4 leukemia) was 1.32 µM, the TGI (NCI-H226 lung) was 1.33 µM and the TGI (NCI-H23 lung) was 13.7 µM. The TGI (NCI-H460 lung) was 0.273 µM, the TGI (NCI-H522 lung) was 10.1 µM and the TGI (NCI/ADR-RES ovarian) was 0.054 µM. For the same compound, the TGI (OVCAR-4 ovarian) was 5.59 µM, the TGI (OVCAR-5 ovarian) was 24.6 µM and the TGI (OVCAR-8 ovarian) was 11.8 µM. It also gave a TGI (PC-3 prostate) of 8.46 µM, a TGI (RPMI-8226 leukemia) of 4.95 µM and a TGI (RXF 393 renal) of 7.78 µM. For the same compound, the TGI (SF-268 CNS) was 11 µM, the TGI (SF-295 CNS) was 12.1 µM and the TGI (SF-539 CNS) was 15.6 µM. The TGI (SK-MEL-2 melanoma) was 8.75 µM, the TGI (SK-MEL-28 melanoma) was 22.4 µM and the TGI (SK-MEL-5 melanoma) was 2.32 µM. It also gave a TGI (SK-OV-3 ovarian) of 11.9 µM, a TGI (SN12C renal) of 14.4 µM and a TGI (SNB-19 CNS) of 14.2 µM. The TGI (SNB-75 CNS) was 7.02 µM, the TGI (SW-620 colon) was 12.4 µM and the TGI (T-47D breast) was 13.3 µM. It also gave a TGI (TK-10 renal) of 16.7 µM, a TGI (U251 CNS) of 4.28 µM and a TGI (UACC-257 melanoma) of 14.3 µM. The TGI (UACC-62 melanoma) was 6.08 µM and the TGI (UO-31 renal) was 2.02 µM.

In the case of `CCC(c1ccc(OC)cc1)C1NC(=S)NC1=O` (configuration not stated), the TGI (786-0 renal) is reported as > 50 µM, the TGI (A498 renal) is reported as > 50 µM and the TGI (A549 NSCLC) is reported as > 50 µM. For the same compound, the TGI (ACHN renal) was > 50 µM, the TGI (CAKI-1 renal) was > 50 µM and the TGI (CCRF-CEM leukemia) was > 50 µM. The TGI (COLO 205 colon) was > 50 µM, the TGI (DU-145 prostate) was > 50 µM and the TGI (EKVX NSCLC) was > 50 µM. For the same compound, the TGI (HCC-2998 colon) was > 50 µM, the TGI (HCT-116 colon) was > 50 µM and the TGI (HCT-15 colon) was > 50 µM. For the same compound, the TGI (HL-60(TB) leukemia) was 47.3 µM, the TGI (HOP-62 NSCLC) was > 50 µM and the TGI (HOP-92 NSCLC) was > 50 µM. For the same compound, the TGI (HS 578T breast) was > 50 µM, the TGI (HT29 colon) was > 50 µM and the TGI (IGROV1 ovarian) was > 50 µM. For the same compound, the TGI (K-562 leukemia) was > 50 µM, the TGI (KM12 colon) was > 50 µM and the TGI (LOX IMVI melanoma) was > 50 µM. For the same compound, the TGI (M14 melanoma) was > 50 µM, the TGI (MALME-3M melanoma) was > 50 µM and the TGI (MCF7 breast) was > 50 µM. For the same compound, the TGI (MDA-MB-231 breast) was > 50 µM, the TGI (MDA-MB-435) was > 50 µM and the TGI (MDA-N) was > 50 µM. The TGI (MOLT-4 leukemia) was > 50 µM, the TGI (NCI-H226 lung) was > 50 µM and the TGI (NCI-H23 lung) was > 50 µM. For the same compound, the TGI (NCI-H460 lung) was > 50 µM, the TGI (NCI-H522 lung) was > 50 µM and the TGI (NCI/ADR-RES ovarian) was > 50 µM. The TGI (OVCAR-3 ovarian) was > 50 µM, the TGI (OVCAR-4 ovarian) was > 50 µM and the TGI (OVCAR-5 ovarian) was > 50 µM. The TGI (OVCAR-8 ovarian) was > 50 µM, the TGI (PC-3 prostate) was > 50 µM and the TGI (RPMI-8226 leukemia) was > 50 µM. The TGI (RXF 393 renal) was > 50 µM, the TGI (SF-268 CNS) was > 50 µM and the TGI (SF-295 CNS) was > 50 µM. The TGI (SF-539 CNS) was > 50 µM, the TGI (SK-MEL-2 melanoma) was > 50 µM and the TGI (SK-MEL-28 melanoma) was > 50 µM. For the same compound, the TGI (SK-MEL-5 melanoma) was > 50 µM, the TGI (SK-OV-3 ovarian) was > 50 µM and the TGI (SN12C renal) was > 50 µM. For the same compound, the TGI (SNB-19 CNS) was > 50 µM, the TGI (SNB-75 CNS) was > 50 µM and the TGI (SW-620 colon) was > 50 µM. The TGI (T-47D breast) was > 50 µM, the TGI (TK-10 renal) was > 50 µM and the TGI (U251 CNS) was > 50 µM. For the same compound, the TGI (UACC-257 melanoma) was > 50 µM and the TGI (UO-31 renal) was > 50 µM.

From PubChem BioAssay (NCI)
